Consider 16 compounds from PubChem BioAssay (NCI).

Each structure is given as a SMILES string.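 How tested: cells in 96-well plates exposed to compound for 48 hours at five concentrations. Here, GI50 denotes the concentration required for 50% inhibition of growth. At the TGI there is no net growth.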

Holding throughout (assay): NCI anticancer screen, dose series, 48 h
Test [1] deals with RXF 393 renal.
Test [2] deals with OVCAR-5 ovarian.
The test system of test [3] is HOP-92 NSCLC.
Test [4] relates to 786-0 renal.
Test [5] concerns SF-539 CNS.
In test [6] the test system is A498 renal.
The subject of test [7] is CCRF-CEM leukemia.
The subject of test [8] is COLO 205 colon.
The subject of test [9] is T-47D breast.
Test [10] has as its system MDA-MB-435.

Take `CN1C(NNC(=O)c2cccnc2)=NS(=O)(=O)c2cc(Cl)ccc21`: the GI50 in test [1], in [2], in test [3], in [4], in test [5] and in test [6] was > 100 µM each time. Moreover, the GI50 in test [7], in test [8], in test [9] and in test [10] was > 100 µM in each case. In addition, the TGI in test [1], in test [2], in [3], in test [4], in [5] and in test [6] was > 100 µM each time. The TGI in test [7], in test [8], in test [9] and in test [10] was > 100 µM in each case.

Take `O=C1c2ccccc2C(=O)c2c(NCCN=Cc3ccccc3O)cccc21`: the GI50 in test [1] is 2.18 µM; in test [2] it was 14.2 µM; in [4] it was 6.8 µM; in test [5], 2.96 µM; in test [6] it was 1.87 µM; in test [7], 1.43 µM. For the same compound, the GI50 in test [8] was 1.41 µM; in [9], 3.46 µM; in [10], 2.51 µM. Also, the TGI in [1] was 6.94 µM; in test [2] it was 99.3 µM; in test [3], 0.0676 µM; in test [4], 37.9 µM; in test [5], 13.3 µM; in test [6] it was 6.67 µM. The TGI in test [7] was 3.88 µM; in test [8], 3.82 µM; in test [9], > 47.1 µM; in [10] it was 7.4 µM.

For the compound `Nc1c(C(=O)Nc2ccccc2Cl)sc2nc3c(cc12)C(=O)CCC3`, the GI50 in [1] was 2.37 µM; in test [2], > 100 µM; in test [3], 7.29 µM; in test [4], 37.7 µM; in test [5], 1.15 µM; in test [6], 0.229 µM. In addition, the GI50 in [7] is > 100 µM; in test [8] it was 0.724 µM; in test [9], > 40 µM; in test [10] it was 0.137 µM. The TGI is > 28.7 µM in test [1]; > 100 µM in [2]; > 100 µM in [3]; > 100 µM in test [4]; > 100 µM in [5]; > 100 µM in test [6]. The TGI in test [7] was > 100 µM; in [8] it was 3.54 µM; in [9] it was > 100 µM; in test [10], 0.349 µM.

For the compound `Cc1noc2c1-c1ccccc1C(c1ccc(Cl)cc1)=N[C@H]2CC(N)=O`, the GI50 in test [1] was 13 µM; in test [2], > 100 µM; in test [3], 0.54 µM; in test [4] it was 10.9 µM; in test [5] it was 5.17 µM; in test [6], 0.235 µM. The GI50 is 14.8 µM in test [7], 0.646 µM in test [8], 3.48 µM in test [9] and 2.78 µM in test [10]. Further, the TGI in test [1] was 72.7 µM; in [2], > 100 µM; in test [3], > 100 µM; in test [4], > 100 µM; in test [5], > 100 µM; in test [6], 15.5 µM. Besides, the TGI was > 100 µM in [7], > 51.7 µM in [8], > 100 µM in test [9] and > 100 µM in test [10].

Take `O=C(NC1CCCCC1)c1ccc(Nc2ncnc3c2cnn3-c2ccccc2)cc1`: the GI50 in [1] was 2.43 µM; in test [2], 15.2 µM; in [3], 2.53 µM; in [4], 3.47 µM; in [5], 3.81 µM; in test [6] it was 3.83 µM. Further, the GI50 in [7] is > 100 µM; in test [8] it was 12.5 µM; in [9] it was 20.2 µM; in test [10], 67.8 µM. In addition, the TGI came out at 9.33 µM in test [1]; 95.2 µM in test [2]; 8.29 µM in test [3]; 18.3 µM in [4]; 17.1 µM in test [5]; 39.4 µM in test [6]. Also, the TGI in test [7], in test [8], in test [9] and in test [10] was > 100 µM in each case.

With `COc1cc2c3c(n(CCCN(CCO)CCO)c(=O)c2cc1OC)-c1cc2c(cc1C3=O)OCO2`, the GI50 in [1] is 4.46 µM; in [2], 0.209 µM; in [4], < 0.01 µM; in test [5], < 0.01 µM; in test [6] it was < 0.01 µM; in test [7] it was < 0.01 µM. For the same compound, the GI50 in test [8] is 0.218 µM; in test [9], 0.144 µM; in [10] it was < 0.0369 µM. In addition, the TGI in test [1] is > 100 µM; in [2], 1.31 µM; in test [3], 4.18 µM; in test [4] it was 0.0646 µM; in [5], < 0.0264 µM; in test [6], 0.345 µM. In addition, the TGI in test [8] is 12.7 µM; in [9] it was > 22.7 µM; in test [10], 0.842 µM.

In the case of `O=C1/C(=C/N2N=C(c3ccc4ccccc4c3)CC2c2ccccc2O)SC(=S)N1c1cccnc1` (stereo not given), the GI50 in test [1] is 1.6 µM; in test [2] it was 6.19 µM; in test [3], 5.2 µM; in test [4], 0.492 µM; in test [5], 1.18 µM; in [6], 1.38 µM. Further, the GI50 in test [7] was 0.625 µM; in test [8], 1.88 µM; in test [9], 3.8 µM; in test [10], 0.481 µM. For the same compound, the TGI in [1] was 8.19 µM; in test [2] it was > 100 µM; in [3], > 100 µM; in test [4], > 100 µM; in [5], 5.16 µM; in test [6] it was 5.83 µM. Moreover, the TGI in test [7] was > 100 µM; in test [8], > 100 µM; in test [9], > 100 µM; in test [10], 3.17 µM.

Consider `O=C(Nc1ccc(Cl)cc1)Nc1nccs1`, for which the GI50 in [1] was 1.49 µM; in test [2], 12.8 µM; in [3], 2.14 µM; in test [4], 11.1 µM; in test [5], 1.81 µM; in test [6], 0.518 µM. The GI50 in test [7] was 1.93 µM; in test [8] it was 0.75 µM; in [9] it was 2.38 µM; in test [10], 0.207 µM. For the same compound, the TGI in test [1] is 6.53 µM; in test [2], > 100 µM; in [3], 34 µM; in [4] it was > 100 µM; in test [5] it was 6.42 µM; in test [6], 16.9 µM. The TGI in test [7] was 62 µM; in [8], 6.13 µM; in test [9], > 100 µM; in [10], 0.585 µM.

For `COc1cc(C(=O)O[C@H](C(N)=O)[C@]2(C)CO2)c2cccc(C)c2c1`, the GI50 in test [1] is 0.148 µM; in test [2], 0.766 µM; in test [3] it was 0.654 µM; in [4], 2.31 µM; in [5] it was < 0.0121 µM; in test [6], 4.31 µM. Besides, the GI50 in test [9] is 1.11 µM; in test [10] it was < 0.0215 µM. Further, the TGI in test [1] is 1.1 µM; in [2] it was 6.01 µM; in test [3], 2.28 µM; in test [4], 5.75 µM; in test [5] it was < 0.0465 µM; in test [6], 15.4 µM. For the same compound, the TGI in test [7] amounted to 5.94 µM; in test [8], 11.4 µM; in test [9] it was 8.1 µM; in test [10], 0.126 µM.

Turning to `CC(Cl)CN1c2ccccc2Sc2ccc(Cl)cc21` (stereo not given), the TGI in [1], in test [2], in test [3], in [4], in [5] and in test [6] was > 10 µM each time. Also, the TGI in test [7], in test [8], in test [9] and in test [10] was > 10 µM in each case.

Turning to `N#CC(C#N)=C1CCCOc2c1ccc1ccccc21`, the GI50 was > 100 µM in [1]; > 100 µM in [2]; 15.8 µM in [3]; 88.2 µM in [4]; > 100 µM in test [5]; 1.84 µM in [6]. The GI50 in test [7] is 23 µM; in test [8] it was > 100 µM; in [9] it was > 100 µM; in test [10] it was > 100 µM. Also, the TGI in test [1] is > 100 µM; in test [2], > 100 µM; in test [3] it was 71.7 µM; in [4], > 100 µM; in [5], > 100 µM; in test [6] it was 4.89 µM. The TGI was 63.7 µM in test [7], > 100 µM in [8], > 100 µM in test [9] and > 100 µM in test [10].

Regarding `CCOC(=O)c1sc(NC(=O)COc2cccc(/C=C3\CCc4cc(OC)ccc4C3=O)c2)nc1C`, the GI50 in test [1] is 2.83 µM; in test [2], 13.5 µM; in [3], 16.9 µM; in test [4], 17 µM; in test [5], 2.1 µM; in [6], 16.3 µM. For the same compound, the GI50 in [7] is 1.26 µM; in test [8] it was 8.49 µM; in [9], 3.75 µM; in test [10], 2.25 µM. In addition, the TGI in [1] was 8.44 µM; in [2] it was > 100 µM; in [3], 36.9 µM; in test [4], > 100 µM; in [5], 7.58 µM; in test [6] it was 76.6 µM. Moreover, the TGI was 4.3 µM in test [7], 43.4 µM in test [8], > 100 µM in test [9] and > 100 µM in [10].

As for `CC1=NC(C)(COC(=O)C2(C)NC(C)(CO)CO2)COC1=O` (stereo not given), the TGI in test [1], in [2], in test [3], in test [4], in test [5] and in [6] was > 100 µM in each case. Moreover, the TGI in test [7], in [8], in test [9] and in test [10] was > 100 µM in each case.

`CC1(C)N=C(N)N=C(N)N1c1cccc(OCCOc2cccc([N+](=O)[O-])c2)c1`: the GI50 in test [1] is 35.2 µM; in test [2] it was 1.88 µM; in [3], 3.51 µM; in [4], 37 µM; in [5] it was 3.41 µM; in test [6], > 67.7 µM. Further, the GI50 in [7] is 1.23 µM; in [8], 2.13 µM; in test [9], 12.6 µM; in test [10] it was 0.495 µM. The TGI in [1] is > 100 µM; in test [2], > 100 µM; in [3], 73.5 µM; in test [4] it was > 100 µM; in test [5], > 100 µM; in test [6], > 100 µM. Moreover, the TGI in test [7], in test [8], in [9] and in test [10] was > 100 µM in each case.

In the case of `COc1ccc(-c2nn(-c3cccc(Cl)c3)cc2-c2nc(N)[nH]c(=O)c2C#N)cc1`, the GI50 in [1] is 4.51 µM; in [2] it was 14.6 µM; in [3] it was 1.65 µM; in test [4] it was 4.65 µM; in test [5] it was 6.59 µM; in test [6] it was 1.47 µM. The GI50 in test [7] is 3.65 µM; in [8], 7.65 µM; in test [9] it was 6.05 µM; in test [10] it was 2.16 µM. In addition, the TGI in test [1] is 22.4 µM; in test [2], 51.4 µM; in test [3] it was 12.2 µM; in [4], 33.5 µM; in [5], 32.2 µM; in test [6], 6.75 µM. In addition, the TGI in test [7] came to 33.8 µM; in test [8], 20.9 µM; in test [9] it was 32.2 µM; in test [10], 5.48 µM.

As for `NC(=O)CNc1ccc([As]=[As]c2ccc(NCC(N)=O)cc2)cc1` (stereo not given), the GI50 is 3.04 µM in test [1]; 4.42 µM in test [2]; 1.63 µM in test [3]; 3.21 µM in [4]; 2.8 µM in [5]; 4.69 µM in test [6]. The GI50 is 0.706 µM in [7], 7.83 µM in [8], 1.44 µM in test [9] and 6.24 µM in test [10]. Also, the TGI in [1] was 16.4 µM; in test [2], 20.2 µM; in test [3], 15.1 µM; in [4], 14.3 µM; in test [5], > 100 µM; in test [6], 18 µM. Further, the TGI in test [7] was 73.6 µM; in test [8], 22 µM; in [9], 17.4 µM; in test [10] it was 56.6 µM.
